Holding throughout (type): in vivo
Series [1] relates to Staphylococcus aureus AS 5155. Kind of series: Model of experimental infection of the guinea pig with Staphylococcus aureus AS 5155. Particulars: about 2%; guinea pig infected with S. aureus AS 5155, resistant to meticillin, MLSB and quinolones.
A short description of series [2]: 2-week topical application to nasal mucous membrane of rabbit, toxicity. Particulars: 2 weeks topical application b.i.d., composition at about 2%.
Series [3] deals with Staphylococcus aureus ATCC 25923. Kind of series: Model of infection of the guinea-pig with Staphylococcus aureus ATCC 25923. Particulars: about 2% in a cetomacrogol and benzyl alcohol formulation; guinea-pig infected with S. aureus ATCC 25923.
The nature of series [4]: 2-week topical application toxicity in rat. Conditions: 2 weeks topical application b.i.d., composition at about 2, about 5 and about 10%.

SMILES strings stand for the structures.

In the case of `Cn1cc(C(=O)O)c(=O)c2cc3cc(F)c(N4CCN(c5ccc(F)cc5)CC4)cc3nc21` [Example 1, 7-Fluoro-8-[4-(4-fluorophenyl)piperazin-1-yl]-1-methyl-4-oxo-1,4-dihydrobenzo[b][1,8]-naphthyridine-3-carboxylic Acid], the in vivo activity entry in series [1] and in series [3] was “active” throughout. In addition, the toxic effect entry in series [2] and in series [4] was “no toxic effect was observed” in each case.

These data come from patent publication US6548506B2, “Benzo[1,8]naphthyridine derivatives, their preparation and pharmaceutical compositions which comprise them” (Aventis Pharma S.A., priority 1998, dated 2003).
